Source: paper PMC2794250, “An MDM2 antagonist (MI-319) restores p53 functions and increases the life span of orally treated follicular lymphoma bearing animals” (2009)

Molecular target: MDM2 (Homo sapiens, UniProt Q00987)
Assay: biochemical

MDM2, sequence (Q00987 1-118): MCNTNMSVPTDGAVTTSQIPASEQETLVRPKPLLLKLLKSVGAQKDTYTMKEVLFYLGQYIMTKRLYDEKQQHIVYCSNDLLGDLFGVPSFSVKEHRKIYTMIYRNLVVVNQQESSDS

Ki: 9.6 ± 3.9 nM
SMILES: CC(C)(C)C[C@H]1N[C@@H](C(=O)NCC[C@H](O)CO)[C@H](c2ccc(F)c(Cl)c2)[C@@]12C(=O)Nc1cc(Cl)c(F)cc12 [MI-319]
